Values belong to the compound of their own block, whether it stands above or below them.
What was measured:
[1] = target: Mitogen-activated protein kinase kinase kinase 2 (Homo sapiens) (UniProt Q9Y2U5); assay: Selectivity interaction (KinomeScan (DiscoverX)) EUB0000178b MAP3K2; conditions: at 1 µM
[2] = target: Serine/threonine-protein kinase 26 (Homo sapiens) (UniProt Q9P289); assay: Selectivity interaction (KinomeScan (DiscoverX)) EUB0000178b STK26; conditions: at 1 µM
[3] = target: Tyrosine-protein kinase JAK1 (Homo sapiens, UniProt P23458); assay: Selectivity interaction (KinomeScan (DiscoverX)) EUB0000178b JAK1@kinase 2; conditions: at 1 µM
[4] = target: T1, Phosphatidylinositol 5-phosphate 4-kinase type-2 gamma (Homo sapiens) (UniProt Q8TBX8); assay: Selectivity interaction (KinomeScan (DiscoverX)) EUB0000178b PIP4K2C; conditions: at 1 µM
T1 sequence (whole entry): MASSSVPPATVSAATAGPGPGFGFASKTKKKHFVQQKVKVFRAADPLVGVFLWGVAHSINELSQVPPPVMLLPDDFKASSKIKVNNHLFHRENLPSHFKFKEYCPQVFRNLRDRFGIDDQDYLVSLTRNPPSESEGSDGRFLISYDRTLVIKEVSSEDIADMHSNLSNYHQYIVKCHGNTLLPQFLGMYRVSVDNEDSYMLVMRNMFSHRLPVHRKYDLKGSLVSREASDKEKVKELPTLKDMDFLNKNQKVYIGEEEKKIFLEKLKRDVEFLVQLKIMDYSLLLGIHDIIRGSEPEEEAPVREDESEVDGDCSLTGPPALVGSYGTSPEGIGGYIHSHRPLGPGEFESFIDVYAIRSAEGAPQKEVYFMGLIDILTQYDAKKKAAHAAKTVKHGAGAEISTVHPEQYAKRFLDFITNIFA

[5] = target: 5'-AMP-activated protein kinase catalytic subunit alpha-1 (Homo sapiens, UniProt Q13131); assay: Selectivity interaction (Kinase panel (University of Dundee)) EUB0000169b PRKAA1; conditions: at 10 µM
Sequence of 5'-AMP-activated protein kinase catalytic subunit alpha-1 (Q13131 whole entry, looked up): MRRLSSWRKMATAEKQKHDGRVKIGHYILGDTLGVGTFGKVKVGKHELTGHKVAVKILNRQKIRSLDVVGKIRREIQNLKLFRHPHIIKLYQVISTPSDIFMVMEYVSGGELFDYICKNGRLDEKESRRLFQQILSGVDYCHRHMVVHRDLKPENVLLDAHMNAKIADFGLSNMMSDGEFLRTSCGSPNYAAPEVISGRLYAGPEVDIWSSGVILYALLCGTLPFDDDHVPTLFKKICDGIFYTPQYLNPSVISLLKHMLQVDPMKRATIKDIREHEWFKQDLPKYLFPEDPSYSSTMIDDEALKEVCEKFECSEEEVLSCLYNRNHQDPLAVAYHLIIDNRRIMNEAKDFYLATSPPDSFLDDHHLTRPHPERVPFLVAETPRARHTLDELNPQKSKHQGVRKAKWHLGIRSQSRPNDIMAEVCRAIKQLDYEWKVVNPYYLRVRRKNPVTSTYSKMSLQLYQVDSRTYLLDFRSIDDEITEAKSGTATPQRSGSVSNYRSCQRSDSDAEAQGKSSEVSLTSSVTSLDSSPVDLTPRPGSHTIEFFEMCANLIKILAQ

[6] = target: Serine/threonine-protein kinase Chk1 (Homo sapiens) (UniProt O14757); assay: Selectivity interaction (Kinase panel (University of Dundee)) EUB0000169b CHEK1; conditions: at 10 µM
Sequence of Serine/threonine-protein kinase Chk1 (Homo sapiens) (O14757 whole entry): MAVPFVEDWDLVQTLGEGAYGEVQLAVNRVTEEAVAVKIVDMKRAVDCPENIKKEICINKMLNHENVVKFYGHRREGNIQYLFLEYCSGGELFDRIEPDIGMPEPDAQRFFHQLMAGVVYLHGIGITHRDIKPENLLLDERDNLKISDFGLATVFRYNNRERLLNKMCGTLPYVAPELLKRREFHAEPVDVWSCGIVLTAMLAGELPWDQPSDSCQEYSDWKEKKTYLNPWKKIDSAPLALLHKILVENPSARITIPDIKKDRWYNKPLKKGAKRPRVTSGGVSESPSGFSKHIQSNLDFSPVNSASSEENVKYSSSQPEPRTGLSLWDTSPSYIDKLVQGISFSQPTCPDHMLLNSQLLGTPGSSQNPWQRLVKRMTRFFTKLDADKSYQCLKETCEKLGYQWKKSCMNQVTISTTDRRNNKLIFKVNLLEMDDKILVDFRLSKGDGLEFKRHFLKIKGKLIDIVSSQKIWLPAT

[7] = target: Serine/threonine-protein kinase Nek6 (Homo sapiens) (UniProt Q9HC98); assay: Selectivity interaction (Kinase panel (University of Dundee)) EUB0000169b NEK6; conditions: at 10 µM
Sequence of Serine/threonine-protein kinase Nek6 (Homo sapiens) (Q9HC98 whole entry): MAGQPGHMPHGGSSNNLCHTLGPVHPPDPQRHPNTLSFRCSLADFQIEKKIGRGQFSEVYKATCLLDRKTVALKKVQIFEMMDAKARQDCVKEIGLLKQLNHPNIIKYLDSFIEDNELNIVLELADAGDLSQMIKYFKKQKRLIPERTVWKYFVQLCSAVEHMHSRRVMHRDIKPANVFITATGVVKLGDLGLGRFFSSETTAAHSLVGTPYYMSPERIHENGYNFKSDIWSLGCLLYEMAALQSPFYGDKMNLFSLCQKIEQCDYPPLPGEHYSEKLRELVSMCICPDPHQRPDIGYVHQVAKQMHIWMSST

[8] = target: Tyrosine-protein kinase CSK (Homo sapiens) (UniProt P41240); assay: Selectivity interaction (Kinase panel (University of Dundee)) EUB0000169b CSK; conditions: at 10 µM
Sequence of Tyrosine-protein kinase CSK (Homo sapiens) (P41240 2-450 limits assumed): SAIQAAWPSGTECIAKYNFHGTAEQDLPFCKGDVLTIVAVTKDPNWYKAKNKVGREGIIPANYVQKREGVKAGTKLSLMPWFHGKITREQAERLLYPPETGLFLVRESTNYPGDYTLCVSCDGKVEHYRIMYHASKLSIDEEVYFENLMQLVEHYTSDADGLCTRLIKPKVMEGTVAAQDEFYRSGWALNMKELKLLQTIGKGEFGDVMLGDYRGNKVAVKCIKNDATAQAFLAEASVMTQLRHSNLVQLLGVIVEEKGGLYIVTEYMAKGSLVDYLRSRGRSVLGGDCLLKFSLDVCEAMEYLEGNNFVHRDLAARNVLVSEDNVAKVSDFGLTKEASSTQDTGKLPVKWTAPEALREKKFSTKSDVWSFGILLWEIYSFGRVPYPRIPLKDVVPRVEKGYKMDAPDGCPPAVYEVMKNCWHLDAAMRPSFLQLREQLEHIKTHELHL

[9] = target: STE20-like serine/threonine-protein kinase (Homo sapiens, UniProt Q9H2G2); assay: Selectivity interaction (KinomeScan (DiscoverX)) EUB0000698a SLK; conditions: at 10 µM
[10] = target: Ribosomal protein S6 kinase alpha-6 (Homo sapiens) (UniProt Q9UK32); assay: Selectivity interaction (KinomeScan (DiscoverX)) EUB0000702a RPS6KA6; conditions: at 1 µM
Sequence of Ribosomal protein S6 kinase alpha-6 (Homo sapiens) (Q9UK32 whole entry): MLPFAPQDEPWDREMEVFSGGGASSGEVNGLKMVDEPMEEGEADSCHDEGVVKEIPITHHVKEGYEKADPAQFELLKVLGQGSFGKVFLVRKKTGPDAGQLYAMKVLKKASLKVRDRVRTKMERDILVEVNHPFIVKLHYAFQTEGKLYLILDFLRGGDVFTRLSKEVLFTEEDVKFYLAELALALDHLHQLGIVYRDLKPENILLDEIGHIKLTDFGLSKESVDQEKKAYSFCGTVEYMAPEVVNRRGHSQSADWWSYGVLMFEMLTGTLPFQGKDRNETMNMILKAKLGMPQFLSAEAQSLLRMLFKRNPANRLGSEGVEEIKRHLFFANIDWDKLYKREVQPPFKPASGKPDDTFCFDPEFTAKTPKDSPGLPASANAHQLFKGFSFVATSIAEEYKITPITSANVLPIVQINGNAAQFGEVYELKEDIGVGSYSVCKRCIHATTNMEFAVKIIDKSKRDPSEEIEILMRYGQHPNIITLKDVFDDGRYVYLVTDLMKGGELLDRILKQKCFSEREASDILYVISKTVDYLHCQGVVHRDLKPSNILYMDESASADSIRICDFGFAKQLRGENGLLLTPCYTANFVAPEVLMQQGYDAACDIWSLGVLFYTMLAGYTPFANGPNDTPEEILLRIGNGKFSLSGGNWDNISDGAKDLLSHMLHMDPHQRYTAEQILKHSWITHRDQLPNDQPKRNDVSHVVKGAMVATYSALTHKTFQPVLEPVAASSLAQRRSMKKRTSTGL

[11] = target: Casein kinase II subunit alpha' (Homo sapiens) (UniProt P19784); assay: Selectivity interaction (KinomeScan (DiscoverX)) EUB0000702a CSNK2A2; conditions: at 1 µM
Sequence of Casein kinase II subunit alpha' (Homo sapiens) (P19784 whole entry, looked up): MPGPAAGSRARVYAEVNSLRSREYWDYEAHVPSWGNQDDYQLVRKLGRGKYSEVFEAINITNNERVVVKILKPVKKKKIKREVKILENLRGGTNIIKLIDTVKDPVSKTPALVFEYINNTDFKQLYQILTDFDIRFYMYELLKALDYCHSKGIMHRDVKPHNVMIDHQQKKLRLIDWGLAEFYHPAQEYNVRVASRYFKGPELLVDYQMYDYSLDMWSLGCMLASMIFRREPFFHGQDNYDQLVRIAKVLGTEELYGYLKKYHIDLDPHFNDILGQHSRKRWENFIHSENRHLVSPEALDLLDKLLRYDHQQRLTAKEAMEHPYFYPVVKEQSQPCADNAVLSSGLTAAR

[12] = target: Mitogen-activated protein kinase kinase kinase 1 (Homo sapiens) (UniProt Q13233); assay: Selectivity interaction (KinomeScan (DiscoverX)) EUB0000702a MAP3K1; conditions: at 1 µM
[13] = target: Dual specificity protein kinase TTK (Homo sapiens) (UniProt P33981); assay: Selectivity interaction (KinomeScan (DiscoverX)) EUB0000138c TTK; conditions: at 100 nM
[14] = target: T2, Homeodomain-interacting protein kinase 4 (Homo sapiens) (UniProt Q8NE63); conditions: at 1 µM
T2 sequence (whole entry): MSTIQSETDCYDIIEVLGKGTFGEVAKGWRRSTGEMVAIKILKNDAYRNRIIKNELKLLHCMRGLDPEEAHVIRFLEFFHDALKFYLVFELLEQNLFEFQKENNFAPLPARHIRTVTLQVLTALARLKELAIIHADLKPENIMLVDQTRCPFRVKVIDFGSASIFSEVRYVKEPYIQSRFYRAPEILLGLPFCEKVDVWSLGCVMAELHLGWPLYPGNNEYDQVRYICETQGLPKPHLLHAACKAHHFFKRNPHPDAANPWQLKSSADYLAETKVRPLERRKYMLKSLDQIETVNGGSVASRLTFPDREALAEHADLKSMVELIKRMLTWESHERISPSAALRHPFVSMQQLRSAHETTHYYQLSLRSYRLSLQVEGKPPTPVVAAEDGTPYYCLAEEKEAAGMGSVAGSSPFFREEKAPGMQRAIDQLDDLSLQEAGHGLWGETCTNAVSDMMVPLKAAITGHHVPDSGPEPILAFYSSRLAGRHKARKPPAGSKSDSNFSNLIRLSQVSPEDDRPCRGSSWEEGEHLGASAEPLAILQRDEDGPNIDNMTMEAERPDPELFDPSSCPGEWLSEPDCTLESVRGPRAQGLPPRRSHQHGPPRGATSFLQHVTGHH

[15] = target: Mast/stem cell growth factor receptor Kit (Homo sapiens, UniProt P10721); conditions: at 1 µM
Sequence of Mast/stem cell growth factor receptor Kit (P10721 whole entry): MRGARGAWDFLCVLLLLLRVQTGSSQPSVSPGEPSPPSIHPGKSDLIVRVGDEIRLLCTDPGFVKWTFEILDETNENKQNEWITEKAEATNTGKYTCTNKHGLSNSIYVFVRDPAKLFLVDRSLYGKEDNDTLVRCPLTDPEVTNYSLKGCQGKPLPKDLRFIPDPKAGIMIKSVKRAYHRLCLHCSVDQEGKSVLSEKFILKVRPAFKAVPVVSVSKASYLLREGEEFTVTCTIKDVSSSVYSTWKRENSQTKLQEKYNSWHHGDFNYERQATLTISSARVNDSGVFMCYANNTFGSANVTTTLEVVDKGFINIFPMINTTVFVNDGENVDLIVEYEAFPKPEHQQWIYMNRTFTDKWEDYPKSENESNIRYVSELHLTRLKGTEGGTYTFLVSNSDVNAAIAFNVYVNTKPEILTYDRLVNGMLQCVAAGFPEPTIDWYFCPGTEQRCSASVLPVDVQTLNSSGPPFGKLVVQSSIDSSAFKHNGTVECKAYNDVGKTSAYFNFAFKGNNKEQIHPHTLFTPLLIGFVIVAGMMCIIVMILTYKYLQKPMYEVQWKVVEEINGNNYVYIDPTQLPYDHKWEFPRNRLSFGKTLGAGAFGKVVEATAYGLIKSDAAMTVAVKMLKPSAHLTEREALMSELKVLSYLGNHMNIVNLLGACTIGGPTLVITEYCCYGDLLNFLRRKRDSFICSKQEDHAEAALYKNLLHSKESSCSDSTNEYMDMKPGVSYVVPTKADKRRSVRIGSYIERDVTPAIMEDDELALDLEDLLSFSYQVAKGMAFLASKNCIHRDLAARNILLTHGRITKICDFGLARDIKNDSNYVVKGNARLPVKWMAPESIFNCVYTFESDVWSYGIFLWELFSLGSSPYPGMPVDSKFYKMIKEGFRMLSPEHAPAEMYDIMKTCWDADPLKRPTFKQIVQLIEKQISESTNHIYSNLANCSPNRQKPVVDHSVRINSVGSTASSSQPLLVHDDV

[16] = target: T3, Dual specificity mitogen-activated protein kinase kinase 5 (Homo sapiens) (UniProt Q13163); assay: Selectivity interaction (KinomeScan (DiscoverX)) EUB0000305b MAP2K5; conditions: CellTiter-Glo assay (Promega, proliferation in ACHN cells): IC50 = […] nM, https://www.sgc-ffm.uni-frankfurt.de/#!specificprobeove, at 100 nM
T3 sequence (whole entry): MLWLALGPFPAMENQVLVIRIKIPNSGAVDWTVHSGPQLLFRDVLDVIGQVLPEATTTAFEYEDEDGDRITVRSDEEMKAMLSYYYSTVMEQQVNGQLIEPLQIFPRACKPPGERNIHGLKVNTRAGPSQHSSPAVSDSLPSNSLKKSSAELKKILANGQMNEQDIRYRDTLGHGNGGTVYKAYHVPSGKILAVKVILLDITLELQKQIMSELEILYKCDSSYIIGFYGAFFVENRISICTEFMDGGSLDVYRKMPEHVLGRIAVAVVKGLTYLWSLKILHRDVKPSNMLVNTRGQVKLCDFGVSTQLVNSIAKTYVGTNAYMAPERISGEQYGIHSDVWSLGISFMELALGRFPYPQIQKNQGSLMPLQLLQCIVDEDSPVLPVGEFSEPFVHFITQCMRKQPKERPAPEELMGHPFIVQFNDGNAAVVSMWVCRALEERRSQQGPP

[17] = target: Tyrosine-protein kinase SYK (Homo sapiens, UniProt P43405); assay: Selectivity interaction (KinomeScan (DiscoverX)) EUB0000305b SYK; conditions: CellTiter-Glo assay (Promega, proliferation in ACHN cells): IC50 = […] nM, https://www.sgc-ffm.uni-frankfurt.de/#!specificprobeove, at 100 nM
[18] = test system: Phosphatidylinositol 4,5-bisphosphate 3-kinase catalytic subunit alpha isoform (Homo sapiens), P42336 [Q546K]; assay: Selectivity interaction (KinomeScan (DiscoverX)) EUB0000305b PIK3CA; conditions: CellTiter-Glo assay (Promega, proliferation in ACHN cells): IC50 = […] nM, https://www.sgc-ffm.uni-frankfurt.de/#!specificprobeove, at 100 nM

Sequence of Serine/threonine-protein kinase 26 (Homo sapiens) (Q9P289 2-416 limits assumed): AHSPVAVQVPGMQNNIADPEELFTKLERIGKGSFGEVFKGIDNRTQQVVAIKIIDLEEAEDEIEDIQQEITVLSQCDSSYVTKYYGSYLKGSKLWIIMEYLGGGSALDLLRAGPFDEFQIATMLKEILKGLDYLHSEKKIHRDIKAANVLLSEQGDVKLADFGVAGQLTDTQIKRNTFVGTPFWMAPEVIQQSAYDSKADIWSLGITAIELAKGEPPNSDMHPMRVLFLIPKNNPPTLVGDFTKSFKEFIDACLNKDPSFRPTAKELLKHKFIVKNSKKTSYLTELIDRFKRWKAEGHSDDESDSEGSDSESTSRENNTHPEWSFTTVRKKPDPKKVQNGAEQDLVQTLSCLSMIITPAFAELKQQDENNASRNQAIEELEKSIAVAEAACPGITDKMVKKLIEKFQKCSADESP
Sequence of Mitogen-activated protein kinase kinase kinase 2 (Homo sapiens) (Q9Y2U5 whole entry): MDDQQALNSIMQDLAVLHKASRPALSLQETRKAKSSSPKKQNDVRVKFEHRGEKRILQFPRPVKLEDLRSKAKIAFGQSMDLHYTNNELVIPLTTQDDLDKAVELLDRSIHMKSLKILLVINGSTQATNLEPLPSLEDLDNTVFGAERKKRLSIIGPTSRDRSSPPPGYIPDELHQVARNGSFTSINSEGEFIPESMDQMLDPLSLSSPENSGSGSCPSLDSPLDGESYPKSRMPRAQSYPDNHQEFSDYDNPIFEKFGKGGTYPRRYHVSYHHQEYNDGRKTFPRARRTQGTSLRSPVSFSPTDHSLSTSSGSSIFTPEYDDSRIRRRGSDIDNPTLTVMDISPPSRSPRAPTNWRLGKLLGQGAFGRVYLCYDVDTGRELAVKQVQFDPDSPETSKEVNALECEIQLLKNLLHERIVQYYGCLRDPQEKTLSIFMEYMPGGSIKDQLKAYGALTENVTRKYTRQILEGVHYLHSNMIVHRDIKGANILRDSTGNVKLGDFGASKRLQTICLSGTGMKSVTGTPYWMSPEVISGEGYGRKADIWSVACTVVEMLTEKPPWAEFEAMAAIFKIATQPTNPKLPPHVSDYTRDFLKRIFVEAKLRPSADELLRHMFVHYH

SMILES: CN1C(=O)c2sccc2N(C)c2nc(Nc3ccc(S(N)(=O)=O)cc3)ncc21
% of control [1]: 2.6% | % of control [2]: 0.6% | % of control [3]: 4.3% | % of control [4]: 8%

SMILES: CC[C@@H]1C(=O)N(C)c2cnc(Nc3ccc(C(=O)NC4CCN(C)CC4)cc3OC)nc2N1C1CCCC1
% of control [5]: 89% | % of control [6]: 91% | % of control [7]: 110% | % of control [8]: 99%

SMILES: COc1cc2ncn(-c3cc(OCc4ccccc4C(F)(F)F)c(C(N)=O)s3)c2cc1OC [GW843682X]
% of control [9]: 0.3%

SMILES: CNC(=O)c1ccc(Nc2ncc(C(F)(F)F)c(NCc3nccnc3N(C)S(C)(=O)=O)n2)cc1 [DEFACTINIB]
% of control [13]: 8.3%

SMILES: CCOc1cn(-c2ccc(F)cc2C)nc1C(=O)Nc1ccc(Oc2ccnc3cc(OC)c(OC)cc23)c(F)c1
% of control [14]: < 10% | % of control [15]: < 10%

Next, values leading:

% of control [10]: 4.6% | % of control [11]: 66.7% | % of control [12]: 0%
SMILES: CN(c1ccnc(CNc2nc(Nc3ccc4c(c3)CC(=O)N4)ncc2C(F)(F)F)n1)S(C)(=O)=O [PF-00911705]

% of control [16]: 8.5% | % of control [17]: 31% | % of control [18]: 45%
SMILES: C[C@H](c1ccnc(Nc2nc3ccc(-c4cc(N(C)C)ncn4)cc3[nH]2)c1)N1CCN(C(=O)CC(F)(F)F)CC1 [BAY-985]

Source: ChEMBL document CHEMBL5212743, “Selectivity Literature for EUbOPEN Chemogenomics Library wave 3” (2023)
